Drawing on US20250353855A1, “HETEROCYCLIC AND HETEROARYL COMPOUNDS FOR TREATING HUNTINGTON'S DISEASE” (PTC THERAPEUTICS, INC., priority 2022, published 2025), this text covers IC50 for 27 molecules.

The test system of one experiment is Endogenous Huntingtin Protein. The experiment is described as follows: Endogenous Huntingtin Protein Assay (ELISA-based MSD electrochemiluminescence). It counts as cell-based. Conditions: MSD plates coated with MW1 (expanded polyglutamine) or MAB2166 capture antibody; lysates. On the procedure: Compounds of Formula (T) were tested using the Meso Scale Discovery (MSD) Assay provided in International Application No. PCT/US2016/066042, filed on Dec. 11, 2016 and claiming priority to U.S. Provisional Application 62/265,652 filed on Dec. 10, 2015, the entire contents of which are incorporated herein by reference.
The Endogenous Huntingtin Protein assay used in Example 1 was developed using the ELISA-based MSD electrochemiluminescence assay platform.
Meso Scale Discovery (MSD) 96-well or 384-well plates were coated overnight at 4° C. with MW1 (expanded polyglutamine) or MAB2166 monoclonal antibody (for capture) at a concentration of 1 μg/mL in PBS (30 μL per well). Plates were then washed three times with 300 μL wash buffer (0.05% Tween-20 in PBS) and blocked (100 μL blocking buffer; 5% BSA in PBS) for 4-5 hours at room temperature with rotational shaking and then washed three times with wash buffer.
Samples (25 μL) were transferred to the antibody-coated MSD plate and incubated overnight at 4° C. After removal of the lysates, the plate was washed three times with wash buffer, and 25 μL of #5656S (Cell signaling; rabbit monoclonal) secondary antibody (diluted to 0.25 μg/mL in 0.05% Tween-20 in blocking buffer) was added to each well and incubated with shaking for 1 Hour at room temperature. Following incubation with the secondary antibody, the wells were rinsed with wash buffer after which 25 μL of goat anti-rabbit SULFO TAG secondary detection antibody (required aspect of the MSD system) (diluted to 0.25 μg/mL in 0.05% Tween-20 in blocking buffer) was added to each well and incubated with shaking for 1 hour at room temperature. After rinsing three times with wash buffer, 150 μL of read buffer T with surfactant (MSD) were added to each empty well, and the plate was imaged on a SI 6000 imager (MSD) according to manufacturers' instructions provided for 96- or 384-well plates.
Turning to `COc1nc2cc(O)c(-c3cc4ccn([C@H]5CC(C)(C)NC(C)(C)[C@H]5F)c4nn3)cc2o1` [Cpd 25, 6-{7-[(3S,4S)-3-fluoro-2,2,6,6-tetramethylpiperidin-4-yl]-7H-pyrrolo[2,3-c]pyridazin-3-yl}-2-methoxy-1,3-benzoxazol-5-ol], the IC50 is less than 100 nM. The molecule `COc1cnc2cc(-c3cc4ccn([C@H]5CC(C)(C)NC(C)(C)[C@H]5F)c4nn3)c(O)cc2n1` [Cpd 33, 7-{7-[(3S,4S)-3-fluoro-2,2,6,6-tetramethylpiperidin-4-yl]-7H-pyrrolo[2,3-c]pyridazin-3-yl}-3-methoxyquinoxalin-6-ol] showed a half-maximal inhibitory concentration (IC50) of less than 100 nM.

Still in this experiment, the particulars now being: MSD plates coated with MW1 (expanded polyglutamine) or MAB2166 capture antibody; lysates; read-out: IC50.
Regarding `CC1(C)C[C@H](n2ccc3cc(-c4cc5nc(C(F)(F)F)oc5cc4O)nnc32)[C@H](F)C(C)(C)N1` [Cpd 24, 5-{7-[(3S,4S)-3-fluoro-2,2,6,6-tetramethylpiperidin-4-yl]-7H-pyrrolo[2,3-c]pyridazin-3-yl}-2-(trifluoromethyl)-1,3-benzoxazol-6-ol], the IC50 lay within 100 to 500 nM.

For the molecule `Cn1c(=O)cnc2cc(-c3cc4ccn([C@H]5CC(C)(C)NC(C)(C)[C@H]5F)c4nn3)c(O)cc21` [Cpd 26, 6-{7-[(3S,4S)-3-fluoro-2,2,6,6-tetramethylpiperidin-4-yl]-7H-pyrrolo[2,3-c]pyridazin-3-yl}-7-hydroxy-1-methylquinoxalin-2(1H)-one], the IC50 is less than 100 nM. Turning to `Cc1nc2cc(O)c(-c3cc4nnn(C5CC(C)(C)NC(C)(C)C5)c4nn3)cc2s1` [Cpd 27, 2-methyl-6-[3-(2,2,6,6-tetramethylpiperidin-4-yl)-3H-[1,2,3]triazolo[4,5-c]pyridazin-6-yl]-1,3-benzothiazol-5-ol], the IC50 was less than 100 nM.

On to `CC1(C)C[C@H](n2ccc3cc(-c4cc5ccccc5cc4O)nnc32)[C@H](F)C(C)(C)N1` [Cpd 28, 3-{7-[(3S,4S)-3-fluoro-2,2,6,6-tetramethylpiperidin-4-yl]-7H-pyrrolo[2,3-c]pyridazin-3-yl}naphthalen-2-ol], for which the IC50 was less than 100 nM. With `CC1(C)C[C@H](n2ccc3cc(-c4cc5ccncc5cc4O)nnc32)[C@H](F)C(C)(C)N1` [Cpd 29, 6-{7-[(3S,4S)-3-fluoro-2,2,6,6-tetramethylpiperidin-4-yl]-7H-pyrrolo[2,3-c]pyridazin-3-yl}isoquinolin-7-ol], the IC50 was less than 100 nM. As to `Cc1cnc2cc(-c3cc4ccn([C@H]5CC(C)(C)NC(C)(C)[C@H]5F)c4nn3)c(O)cc2c1` [Cpd 30, 7-{7-[(3S,4S)-3-fluoro-2,2,6,6-tetramethylpiperidin-4-yl]-7H-pyrrolo[2,3-c]pyridazin-3-yl}-3-methylquinolin-6-ol], the IC50 is less than 100 nM.

For `Cc1ccc2cc(O)c(-c3cc4ccn([C@H]5CC(C)(C)NC(C)(C)[C@H]5F)c4nn3)cc2n1` [Cpd 31, 7-{7-[(3S,4S)-3-fluoro-2,2,6,6-tetramethylpiperidin-4-yl]-7H-pyrrolo[2,3-c]pyridazin-3-yl}-2-methylquinolin-6-ol], the IC50 is less than 100 nM.

Consider `Cc1ccc2cc(-c3cc4ccn([C@H]5CC(C)(C)NC(C)(C)[C@H]5F)c4nn3)c(O)cc2n1` [Cpd 32, 6-{7-[(3S,4S)-3-fluoro-2,2,6,6-tetramethylpiperidin-4-yl]-7H-pyrrolo[2,3-c]pyridazin-3-yl}-2-methylquinolin-7-ol], for which the IC50 was less than 100 nM. `Cc1cnc2cc(O)c(-c3cc4ccn([C@H]5CC(C)(C)NC(C)(C)[C@H]5F)c4nn3)cc2c1` [Cpd 35, 6-{7-[(3S,4S)-3-fluoro-2,2,6,6-tetramethylpiperidin-4-yl]-7H-pyrrolo[2,3-c]pyridazin-3-yl}-3-methylquinolin-7-ol]: the IC50 was less than 100 nM. As for `CC1(C)C[C@H](n2ccc3cc(-c4cc5oc(=O)[nH]c5cc4O)nnc32)[C@H](F)C(C)(C)N1` [Cpd 36, 6-{7-[(3S,4S)-3-fluoro-2,2,6,6-tetramethylpiperidin-4-yl]-7H-pyrrolo[2,3-c]pyridazin-3-yl}-5-hydroxy-1,3-benzoxazol-2(3H)-one], the IC50 is less than 100 nM. As for `Cn1nc2cc(O)c(-c3cc4ccn([C@H]5CC(C)(C)NC(C)(C)[C@H]5F)c4nn3)cc2n1` [Cpd 37, 6-{7-[(3S,4S)-3-fluoro-2,2,6,6-tetramethylpiperidin-4-yl]-7H-pyrrolo[2,3-c]pyridazin-3-yl}-2-methyl-2H-benzotriazol-5-ol], the IC50 is less than 100 nM. On to `Cn1cc2cc(O)c(-c3cc4ccn([C@H]5CC(C)(C)NC(C)(C)[C@H]5F)c4nn3)cc2n1` [Cpd 38, 6-{7-[(3S,4S)-3-fluoro-2,2,6,6-tetramethylpiperidin-4-yl]-7H-pyrrolo[2,3-c]pyridazin-3-yl}-2-methyl-2H-indazol-5-ol], for which the IC50 was less than 100 nM.

Take `Cc1ncc2cc(O)c(-c3cc4ccn([C@H]5CC(C)(C)NC(C)(C)[C@H]5F)c4nn3)cc2n1` [Cpd 39, 7-{7-[(3S,4S)-3-fluoro-2,2,6,6-tetramethylpiperidin-4-yl]-7H-pyrrolo[2,3-c]pyridazin-3-yl}-2-methylquinazolin-6-ol]: the IC50 was less than 100 nM.

Take `CC1(C)C[C@H](n2ccc3cc(-c4cc5ncc(F)cc5cc4O)nnc32)[C@H](F)C(C)(C)N1` [Cpd 40, 3-fluoro-7-{7-[(3S,4S)-3-fluoro-2,2,6,6-tetramethylpiperidin-4-yl]-7H-pyrrolo[2,3-c]pyridazin-3-yl}quinolin-6-ol]: the IC50 was less than 100 nM. Regarding `Cn1nnc2cc(-c3cc4ccn([C@H]5CC(C)(C)NC(C)(C)[C@H]5F)c4nn3)c(O)cc21` [Cpd 41, 5-{7-[(3S,4S)-3-fluoro-2,2,6,6-tetramethylpiperidin-4-yl]-7H-pyrrolo[2,3-c]pyridazin-3-yl}-1-methyl-1H-benzotriazol-6-ol], the IC50 was less than 100 nM. As to `Cn1nnc2cc(O)c(-c3cc4ccn([C@H]5CC(C)(C)NC(C)(C)[C@H]5F)c4nn3)cc21` [Cpd 42, 6-{7-[(3S,4S)-3-fluoro-2,2,6,6-tetramethylpiperidin-4-yl]-7H-pyrrolo[2,3-c]pyridazin-3-yl}-1-methyl-1H-benzotriazol-5-ol], the concentration for half-maximal inhibition (IC50) was less than 100 nM. Consider `Cc1nc2cc(O)c(-c3cc4c(nn3)N([C@H]3CCNC5(CC5)C3)CC4)cc2o1` [Cpd 43, 6-{7-[(7S)-4-azaspiro[2.5]octan-7-yl]-6,7-dihydro-5H-pyrrolo[2,3-c]pyridazin-3-yl}-2-methyl-1,3-benzoxazol-5-ol], for which the IC50 is less than 100 nM.

Consider `Cc1nc2cc(O)c(-c3cc4c(nn3)N([C@H]3CC(C)(C)NC(C)(C)[C@H]3F)CC4)cc2o1` [Cpd 44, 6-{7-[(3S,4S)-3-fluoro-2,2,6,6-tetramethylpiperidin-4-yl]-6,7-dihydro-5H-pyrrolo[2,3-c]pyridazin-3-yl}-2-methyl-1,3-benzoxazol-5-ol], for which the 50% inhibitory concentration (IC50) is less than 100 nM. `CC1(C)C[C@H](N2CCc3cc(-c4cc5nccnc5cc4O)nnc32)[C@H](F)C(C)(C)N1` [Cpd 45, 7-{7-[(3S,4S)-3-fluoro-2,2,6,6-tetramethylpiperidin-4-yl]-6,7-dihydro-5H-pyrrolo[2,3-c]pyridazin-3-yl}quinoxalin-6-ol]: the IC50 is less than 100 nM. For `Cc1nc2cc(-c3cc4c(nn3)N([C@H]3CC(C)(C)NC(C)(C)[C@H]3F)CC4)c(O)cc2[nH]1` [Cpd 46, 5-{7-[(3S,4S)-3-fluoro-2,2,6,6-tetramethylpiperidin-4-yl]-6,7-dihydro-5H-pyrrolo[2,3-c]pyridazin-3-yl}-2-methyl-1H-benzimidazol-6-ol], the IC50 is less than 100 nM.

For the molecule `CC1(C)C[C@H](N2CCc3cc(-c4cc5nn[nH]c5cc4O)nnc32)[C@H](F)C(C)(C)N1` [Cpd 47, 5-{7-[(3S,4S)-3-fluoro-2,2,6,6-tetramethylpiperidin-4-yl]-6,7-dihydro-5H-pyrrolo[2,3-c]pyridazin-3-yl}-1H-benzotriazol-6-ol], the IC50 was less than 100 nM.

Regarding `Cc1nc2cc(-c3cc4c(nn3)N([C@H]3CC(C)(C)NC(C)(C)[C@H]3F)CC4)c(O)cc2n1C` [Cpd 48, 5-{7-[(3S,4S)-3-fluoro-2,2,6,6-tetramethylpiperidin-4-yl]-6,7-dihydro-5H-pyrrolo[2,3-c]pyridazin-3-yl}-1,2-dimethyl-1H-benzimidazol-6-ol], the IC50 was less than 100 nM. Regarding `Oc1cc2nccnc2cc1-c1cc2c(nn1)N([C@H]1CCNC3(CC3)C1)CC2` [Cpd 49, 7-{7-[(7S)-4-azaspiro[2.5]octan-7-yl]-6,7-dihydro-5H-pyrrolo[2,3-c]pyridazin-3-yl}quinoxalin-6-ol], the IC50 is less than 100 nM.

With `Cn1nnc2cc(-c3cc4c(nn3)N([C@H]3CC(C)(C)NC(C)(C)[C@H]3F)CC4)c(O)cc21` [Cpd 50, 5-{7-[(3S,4S)-3-fluoro-2,2,6,6-tetramethylpiperidin-4-yl]-6,7-dihydro-5H-pyrrolo[2,3-c]pyridazin-3-yl}-1-methyl-1H-benzotriazol-6-ol], the IC50 was less than 100 nM.

On to `Cc1nc2cc(O)c(-c3cc4c(nn3)N([C@H]3CC(C)(C)NC(C)(C)[C@H]3F)CC4)cc2nc1C` [Cpd 51, 7-{7-[(3S,4S)-3-fluoro-2,2,6,6-tetramethylpiperidin-4-yl]-6,7-dihydro-5H-pyrrolo[2,3-c]pyridazin-3-yl}-2,3-dimethylquinoxalin-6-ol], for which the IC50 was less than 100 nM.

One may read the IC50 as the point on the concentration scale where inhibition reaches its midpoint.
